The results in this text go back to article PMC7114241 (Antiviral Research, 2011).

For the experiment, the target named is SARS-CoV M^pro (Severe acute respiratory syndrome coronavirus, UniProt P0C6X7). It is filed as biochemical.

As for Dabcyl-KTSAVLQ↓SGFRKME-Edans amide, the “apparent k cat/K m” value came to 2359 M^−1·19 s^−1 and the “k cat/K m” value was determined as 7863 M⁻¹ s⁻¹. Under “pH 7.3”, this substance registered a K m of 24.5 µM.
